In series [1] the test system is HBV. Nature of the series: anti HBV activity, HepG2.117 inducibly HBV producing cell line (Tet-off), intracellular HBV DNA by realtime PCR. Type of series: cell-based. As to conditions: Hepatitis B virus, 72 h, HepG2.117 cells, 3 days of treatment.
Series [2] can be described thus: Cytotoxicity, HepG2 cells, Resazurin assay. Type of series: cell-based. As to conditions: human.

By EC50 is commonly meant the concentration giving half of the maximal effect. A low value points to greater potency. One may read the CC50 as the concentration that lowers cell viability or growth by half. Low readings indicate greater toxicity to the cells, high ones lower toxicity to the cells. Consider `Cn1cc(S(=O)(=O)NC2(C(F)(F)F)CCC2)c(Cl)c1C(=O)Nc1ccnc(F)c1` [Compound 111, 3-chloro-N-(2-fluoro-4-pyridyl)-1-methyl-4-[[1-(trifluoromethyl)cyclobutyl]sulfamoyl]pyrrole-2-carboxamide], for which the EC50 in series [1] was 30 nM. Besides, in series [2], the CC50 at 4 days is greater than 25000 nM.

`Cc1cc(NC(=O)c2c(F)c(S(=O)(=O)NC3(C(F)(F)F)CCC3)cn2C)cc(Br)n1` [Compound 164, N-(2-bromo-6-methyl-4-pyridyl)-3-fluoro-1-methyl-4-[[1-(trifluoromethyl)cyclobutyl]sulfamoyl]pyrrole-2-carboxamide] displayed a 50% effective concentration (EC50) in series [1] of 40 nM. The compound also yielded a CC50 at 4 days in series [2] greater than 25000 nM.

With `Cn1cc(S(=O)(=O)NC2(C)CC(F)(F)C2)c(F)c1C(=O)Nc1ccnc(Br)c1F` [Compound 131, N-(2-bromo-3-fluoro-4-pyridyl)-4-[(3,3-difluoro-1-methyl-cyclobutyl)sulfamoyl]-3-fluoro-1-methyl-pyrrole-2-carboxamide], the response in series [1] was half-maximal at 20 nM (EC50). In series [2], this compound registered a CC50 at 4 days greater than 25000 nM.

In series [1], `Cc1cc(NC(=O)c2c(Cl)c(S(=O)(=O)N[C@H](C)C(C)(F)F)cn2C)cc(Cl)n1` [Compound 149, 3-chloro-N-(2-chloro-6-methyl-4-pyridyl)-4-[[(1R)-2,2-difluoro-1-methyl-propyl]sulfamoyl]-1-methyl-pyrrole-2-carboxamide] had an EC50 of 60 nM. For the same compound, the half-maximal cytotoxic concentration (CC50) at 4 days in series [2] is greater than 25000 nM.

Regarding `Cn1cc(S(=O)(=O)NC2(C(F)(F)F)CCC2)c(F)c1C(=O)Nc1ccnc(F)c1` [Compound 169, 3-fluoro-N-(2-fluoro-4-pyridyl)-1-methyl-4-[[1-(trifluoromethyl)cyclobutyl]sulfamoyl]pyrrole-2-carboxamide], the EC50 in series [1] came out at 30 nM. Moreover, in series [2], the CC50 at 4 days is greater than 25000 nM.

Compound `C[C@H](CO)NS(=O)(=O)c1cn(C)c(C(=O)Nc2ccnc(Cl)c2)c1Cl` [Compound 89, 3-chloro-N-(2-chloro-4-pyridyl)-4-[[(1R)-2-hydroxy-1-methyl-ethyl]sulfamoyl]-1-methyl-pyrrole-2-carboxamide] yielded a concentration giving a half-maximal response (EC50) in series [1] of 360 nM. The compound also had a cytotoxic concentration (CC50) at 4 days in series [2] greater than 25000 nM.

`Cn1cc(S(=O)(=O)NC2(CO)COC2)c(Cl)c1C(=O)Nc1ccnc(Cl)c1` [Compound 92] registered an EC50 in series [1] of 440 nM. Besides, the 50% cytotoxic concentration (CC50) at 4 days in series [2] was greater than 25000 nM.

In turn, `C[C@@H](NS(=O)(=O)c1cn(C)c(C(=O)Nc2ccnc(C(F)(F)F)c2F)c1Cl)C(F)(F)F` [Compound 56, 3-chloro-N-[3-fluoro-2-(trifluoromethyl)-4-pyridyl]-1-methyl-4-[[(1R)-2,2,2-trifluoro-1-methyl-ethyl]sulfamoyl]pyrrole-2-carboxamide] had an EC50 in series [1] of 50 nM. For the same compound, the 50% cytotoxic concentration (CC50) at 4 days in series [2] was greater than 25000 nM.

As to `C[C@@H](NS(=O)(=O)c1cn(C)c(C(=O)Nc2ccnc(Cl)c2)c1Cl)C(C)(F)F` [Compound 94, 3-chloro-N-(2-chloro-4-pyridyl)-4-[[(1R)-2,2-difluoro-1-methyl-propyl]sulfamoyl]-1-methyl-pyrrole-2-carboxamide], the EC50 in series [1] was 30 nM. The compound also displayed a CC50 at 4 days in series [2] greater than 25000 nM.

In series [1], `C[C@H](NS(=O)(=O)c1cn(C)c(C(=O)Nc2ccnc(C(F)(F)F)c2)c1F)C(C)(F)F` [Compound 62, 4-[[(1S)-2,2-difluoro-1-methyl-propyl]sulfamoyl]-3-fluoro-1-methyl-N-[2-(trifluoromethyl)-4-pyridyl]pyrrole-2-carboxamide] had an EC50 of 190 nM. The CC50 at 4 days in series [2] is greater than 25000 nM.

In series [1], `C[C@@H](NS(=O)(=O)c1cn(C)c(C(=O)Nc2ccnc(C(C)(F)F)c2)c1Cl)C(F)(F)F` [Compound 182, 3-chloro-N-[2-(1,1-difluoroethyl)-4-pyridyl]-1-methyl-4-[[(1R)-2,2,2-trifluoro-1-methyl-ethyl]sulfamoyl]pyrrole-2-carboxamide] came in with an EC50 of 1300 nM. In series [2], this compound had a CC50 at 4 days greater than 25000 nM.

In turn, `CC[C@H](NS(=O)(=O)c1cn(C)c(C(=O)Nc2ccnc(C(F)F)c2)c1Cl)C(F)(F)F` [Compound 84, 3-chloro-N-[2-(difluoromethyl)-4-pyridyl]-1-methyl-4-[[(1S)-1-(trifluoromethyl)propyl]sulfamoyl]pyrrole-2-carboxamide] came in with an EC50 in series [1] of 110 nM. The compound also registered a 50% cytotoxic concentration (CC50) at 4 days in series [2] greater than 25000 nM.

The compound `CC(C)NS(=O)(=O)c1cn(C)c(C(=O)Nc2ccnc(C(F)(F)F)c2)c1F` [Compound 78, 3-fluoro-4-(isopropylsulfamoyl)-1-methyl-N-[2-(trifluoromethyl)-4-pyridyl]pyrrole-2-carboxamide] had a 50% effective concentration (EC50) in series [1] of 260 nM. For the same compound, the 50% cytotoxic concentration (CC50) at 4 days in series [2] was greater than 25000 nM.

`Cc1cc(NC(=O)c2c(F)c(S(=O)(=O)NC3(C(F)(F)F)CCC3)cn2C)cc(C(F)F)n1` [Compound 173, N-[2-(difluoromethyl)-6-methyl-4-pyridyl]-3-fluoro-1-methyl-4-[[1-(trifluoromethyl)cyclobutyl]sulfamoyl]pyrrole-2-carboxamide]: in series [1], it took 20 nM to reach a half-maximal effect (EC50). Moreover, in series [2], the CC50 at 4 days was greater than 25000 nM.

On to `C[C@@H](NS(=O)(=O)c1cn(C)c(C(=O)Nc2c(Cl)c(F)nc(F)c2Cl)c1Cl)C(F)(F)F` [Compound 186, 3-chloro-N-(3,5-dichloro-2,6-difluoro-4-pyridyl)-1-methyl-4-[[(1R)-2,2,2-trifluoro-1-methyl-ethyl]sulfamoyl]pyrrole-2-carboxamide], for which the half-maximal effective concentration (EC50) in series [1] turned out to be 10500 nM. This compound came in with a CC50 at 4 days in series [2] greater than 25000 nM.

In the case of `C[C@@H](NS(=O)(=O)c1cn(C)c(C(=O)Nc2ccnc(C(F)F)c2F)c1Cl)C(F)(F)F` [Compound 142, 3-chloro-N-[2-(difluoromethyl)-3-fluoro-4-pyridyl]-1-methyl-4-[[(1R)-2,2,2-trifluoro-1-methyl-ethyl]sulfamoyl]pyrrole-2-carboxamide], the midpoint of the response in series [1], the EC50, lay at 20 nM. In addition, the CC50 at 4 days in series [2] was greater than 25000 nM.

For `Cn1cc(S(=O)(=O)NC2(C)CC(F)(F)C2)c(Cl)c1C(=O)Nc1ccnc(Cl)c1F` [Compound 114, 3-chloro-N-(2-chloro-3-fluoro-4-pyridyl)-4-[(3,3-difluoro-1-methyl-cyclobutyl)sulfamoyl]-1-methyl-pyrrole-2-carboxamide], the 50% effective concentration (EC50) in series [1] was found to be 10 nM. Besides, the CC50 at 4 days in series [2] was greater than 25000 nM.

Compound `Cn1cc(S(=O)(=O)NC2(C(F)(F)F)CCC2)c(F)c1C(=O)Nc1ccnc(C#N)c1` [Compound 123, N-(2-cyano-4-pyridyl)-3-fluoro-1-methyl-4-[[1-(trifluoromethyl)cyclobutyl]sulfamoyl]pyrrole-2-carboxamide] returned an EC50 in series [1] of 10 nM. The CC50 at 4 days in series [2] is greater than 25000 nM.

As for `Cn1cc(S(=O)(=O)NC2(C(F)(F)F)CCC2)c(Cl)c1C(=O)Nc1cc(F)nc(F)c1` [Compound 109, 3-chloro-N-(2,6-difluoro-4-pyridyl)-1-methyl-4-[[1-(trifluoromethyl)cyclobutyl]sulfamoyl]pyrrole-2-carboxamide], in series [1], a half-maximal response (EC50) required 10 nM. The CC50 at 4 days in series [2] is greater than 25000 nM.

In series [1], `Cn1cc(S(=O)(=O)NC2(C)CC(F)(F)C2)c(F)c1C(=O)Nc1ccnc(C(F)(F)F)c1` [Compound 55, 4-[(3,3-difluoro-1-methyl-cyclobutyl)sulfamoyl]-3-fluoro-1-methyl-N-[2-(trifluoromethyl)-4-pyridyl]pyrrole-2-carboxamide] displayed a half-maximal effective concentration (EC50) of 70 nM. In addition, in series [2], the half-maximal cytotoxic concentration (CC50) at 4 days is greater than 25000 nM.

`C[C@@H](NS(=O)(=O)c1cn(C)c(C(=O)Nc2c(F)cnc(F)c2F)c1Cl)C(F)(F)F` [Compound 44, 3-chloro-1-methyl-4-[[(1R)-2,2,2-trifluoro-1-methyl-ethyl]sulfamoyl]-N-(2,3,5-trifluoro-4-pyridyl)pyrrole-2-carboxamide] came in with an EC50 in series [1] of 640 nM. The compound further gave a CC50 at 4 days in series [2] greater than 25000 nM.

Compound `C[C@@H](NS(=O)(=O)c1cn(C)c(C(=O)Nc2c(F)c(F)nc(F)c2Cl)c1Cl)C(F)(F)F` [Compound 187, 3-chloro-N-(3-chloro-2,5,6-trifluoro-4-pyridyl)-1-methyl-4-[[(1R)-2,2,2-trifluoro-1-methyl-ethyl]sulfamoyl]pyrrole-2-carboxamide] displayed a 50% effective concentration (EC50) in series [1] of 710 nM. Besides, the CC50 at 4 days in series [2] is greater than 25000 nM.

Compound `Cn1cc(S(=O)(=O)NC2(C)CC(F)(F)C2)c(Cl)c1C(=O)Nc1ccnc(C(F)(F)F)c1` [Compound 66, 3-chloro-4-[(3,3-difluoro-1-methyl-cyclobutyl)sulfamoyl]-1-methyl-N-[2-(trifluoromethyl)-4-pyridyl]pyrrole-2-carboxamide] showed an EC50 in series [1] of 90 nM. The CC50 at 4 days in series [2] is greater than 25000 nM.

In series [1], `C[C@H](NS(=O)(=O)c1cn(C)c(C(=O)Nc2ccnc(C#N)c2)c1F)C(C)(F)F` [Compound 58, N-(2-cyano-4-pyridyl)-4-[[(1S)-2,2-difluoro-1-methyl-propyl]sulfamoyl]-3-fluoro-1-methyl-pyrrole-2-carboxamide] registered a concentration for a half-maximal effect (EC50) of 140 nM. The compound also returned a CC50 at 4 days in series [2] greater than 25000 nM.

The compound `Cn1cc(S(=O)(=O)NC2(C(F)(F)F)CCC2)c(Cl)c1C(=O)Nc1ccnc(Br)c1` [Compound 110, N-(2-bromo-4-pyridyl)-3-chloro-1-methyl-4-[[1-(trifluoromethyl)cyclobutyl]sulfamoyl]pyrrole-2-carboxamide] returned an EC50 in series [1] of 20 nM. This compound registered a CC50 at 4 days in series [2] greater than 25000 nM.

`CC[C@@H](NS(=O)(=O)c1cn(C)c(C(=O)Nc2ccnc(Cl)c2F)c1Cl)C(F)(F)F` [Compound 112, 3-chloro-N-(2-chloro-3-fluoro-4-pyridyl)-1-methyl-[[(1R)-1-(trifluoromethyl)propyl]sulfamoyl]pyrrole-2-carboxamide]: the half-maximal effective concentration (EC50) in series [1] was determined as 20 nM. Further, the CC50 at 4 days in series [2] was greater than 25000 nM.

In the case of `C[C@@H](NS(=O)(=O)c1cn(C)c(C(=O)Nc2ccc(F)c(Cl)n2)c1Cl)C(F)(F)F` [Compound 75, 3-chloro-N-(6-chloro-5-fluoro-2-pyridyl)-1-methyl-4-[[(1R)-2,2,2-trifluoro-1-methyl-ethyl]sulfamoyl]pyrrole-2-carboxamide], in series [1], a half-maximal effect (EC50) was put at 60 nM. Besides, in series [2], the CC50 at 4 days is greater than 25000 nM.

With `CC[C@@H](C)NS(=O)(=O)c1cn(C)c(C(=O)Nc2ccnc(C#N)c2)c1Cl` [Compound 72, 3-chloro-N-(2-cyano-4-pyridyl)-1-methyl-4-[[(1R)-1-methylpropyl]-sulfamoyl]pyrrole-2-carboxamide], in series [1], the EC50 was 100 nM. In series [2], this compound came in with a cytotoxic concentration (CC50) at 4 days greater than 25000 nM.

Source of the values: US11078193B2 (priority 2014, dated 2021).
